Measurements from a melting point compilation (Tetko et al.; mined from patent text by program, amines drawn as free bases though some values may be those of a salt).

Molecule CC(CCC(=O)NO)NC(=O)C(=O)c1cn2c3c(cccc13)CCC2 (stereo not given) has a melting point of 135 to 137 °C.
Molecule Cc1cccnc1-c1ccc2ccnc(N)c2n1 has a melting point of 170 to 171 °C.
COC(=O)CCC(=O)c1ccc(-c2ccc(F)cc2)cc1 showed a melting point of 132 to 133 °C.
Cc1occc1C(=O)Nc1ccc(Cl)c(C=NN2CCOCC2)c1 gave a melting point of 121 to 123 °C.
Molecule OCC1CCC(N2CCC(=C3c4ccccc4Sc4ccc(C(F)(F)F)cc43)CC2)CC1 (stereo not given) has a melting point of 193 to 197 °C.
In the case of CN1Cc2cccc3c2c(cn3C)S1(=O)=O, the melting point is reported as 190 °C.
O=C(NCc1ccc(Cl)cc1)c1cn(N2CCCCC2)c2ccc(CN3CCOCC3)cc2c1=O showed a melting point of 161 to 164 °C.
COc1ccc(C(=O)c2c(-c3ccccc3)sc3cc(OC)ccc23)cc1 gave a melting point of 132 °C.
With CC(c1ccc(F)cc1)N1CC(C)(C)C(Oc2ccc(C#N)c(C(F)(F)F)c2)C1=O (stereo not given) the melting point was 82 to 83 °C.
Cn1c(=O)c(-c2ccc(Cl)cc2Cl)cc2c3cc(-c4csc(N)n4)ccc3n(C)c21 showed a melting point of 272 to 273 °C.
In the case of Cc1cccc2nc(C(F)(F)F)n(C3CCC(=O)NC3=O)c(=O)c12 (stereo not given), the melting point is reported as 308 to 310 °C.
CC1(N)CCC(=O)N(C(=O)OCc2ccccc2)C1=O (stereo not given) gave a melting point of 150 to 152 °C.
With O=C(O)C1=Cc2cc(-c3ccc(C(F)(F)F)cc3)ccc2OCC1 the melting point was 273 to 276 °C.
In the case of Cc1nnc(Cl)c2cc3n(c12)CCCC3, the melting point is reported as 272 to 274 °C.
C[Si]1(C)CC[Si](C)(C)N1c1ccc(Br)cn1 showed a melting point of 50.4 to 55.8 °C.
With CCCCOC(=O)Oc1cc(-n2c(OCC)nc(C(F)(F)F)cc2=O)c(F)cc1Cl the melting point was 100 to 102 °C.
In the case of CCOC(=O)CCC1CCCN2CCc3c([nH]c4ccccc34)C12 (stereo not given), the melting point is reported as 72 to 74 °C.
In the case of O=C(O)c1cnc(N2CCN(CC3CC3)C2=O)s1, the melting point is reported as 250 to 252 °C.
Molecule COc1cc2nc3ccc(SC)cc3sc-2cc1=O has a melting point of 222 to 224 °C.
In the case of COC(=O)C1CN(C(=O)c2ccc(OC(F)(F)F)cc2)c2cc(Cl)ccc2CN1S(=O)(=O)c1ccc(OC)cc1 (stereo not given), the melting point is reported as 149 to 151 °C.
Molecule C[C@@H]1CN(C(=O)[C@@](C)(O)C(F)(F)F)[C@@H](C)CN1S(=O)(=O)c1ccc(C(=O)N(C)C)cc1 has a melting point of 86 to 87 °C.
O=C(O)CCCCCN1CCN2c3ccccc3Cc3ccccc3C2C1 (stereo not given) gave a melting point of 181 to 182 °C.
Work on O=C1NC(=O)c2c1c(-c1c(Cl)cccc1Cl)cc1c2c2cc(O)ccc2n1CCO yielded a melting point of 254 to 257 °C.
In the case of CCc1cc(Oc2ccc([N+](=O)[O-])cc2C(F)(F)F)nn1C(=O)NC, the melting point is reported as 97 to 100 °C.
CC(=O)c1c(C)[nH]c(C2CCCCC2)c1C gave a melting point of 186 to 188 °C.
CCOC(=O)c1csc(NC(=O)c2ccccc2)n1 showed a melting point of 146 to 147 °C.
CC/C(=C(\c1ccc(/C=C/C(=O)O)cc1)c1ccc(OC(=O)c2ccno2)cc1)c1ccccc1 gave a melting point of 141 to 142 °C.
With NC(=O)c1c(F)ccc(OCc2cc3cc(C(F)(F)F)ccc3s2)c1F the melting point was 150 to 152 °C.
Work on COc1cc(OC)nc(C(C(=O)NS(C)(=O)=O)C(C)C)n1 (stereo not given) yielded a melting point of 99 to 102 °C.
With CCOC(=O)C1=CC2(CCC1S(=O)(=O)Nc1ccc(F)cc1Cl)OCCO2 (stereo not given) the melting point was 117 to 119 °C.
In the case of COCNC(=O)SC(C(=O)O)c1ccccc1 (stereo not given), the melting point is reported as 111 to 112 °C.
With COc1nc(C)c(C(C)O)cc1NC(=O)N1CCN(c2cccc(C)c2C)CC1 (stereo not given) the melting point was 100 to 102 °C.
With CC(C)c1cc(CCC(=O)OCC(C)(C)C2OCC3(CO2)COC(C(C)(C)COC(=O)CCc2cc(C(C)C)c(O)c(C(C)(C)C)c2)OC3)cc(C(C)(C)C)c1O (stereo not given) the melting point was 47 to 57 °C.
O=C(NCCO)c1cccc(-c2cccc3cc(Cc4ccc(=O)[nH]c4)sc23)c1 gave a melting point of 134 to 137 °C.
For N#Cc1[nH]ccc1-c1ccccc1Cl, the melting point was 114 to 115 °C.
OCc1c(CO)c(-c2ccc(F)c(F)c2)n2c1Cc1ccccc1C2 gave a melting point of 145 to 146 °C.
For CCCCCCn1ccc(NC(C)=O)nc1=O, the melting point was 129 to 130 °C.
For C=CCCn1cnc2c1c(=O)n(C)c(=O)n2C, the melting point was 110 °C.
With CCOP(=O)(/C=C\c1cnc(-c2ccccc2)nc1OCc1ccc(OCc2nc(-c3ccco3)oc2C)c(OC)c1)OCC the melting point was 103 to 104 °C.
With CC(C)[Si](Oc1ccc2c(c1)CN(Nc1ccccn1)C2)(C(C)C)C(C)C the melting point was 95 to 96 °C.
Molecule CC(C)(C)OC(=O)N1CCN(c2c(F)cc(N3CC(CN=[N+]=[N-])OC3=O)cc2F)CC1 (stereo not given) has a melting point of 115 to 117 °C.
In the case of O=C1CCC(N2Cc3cc(CNC(=O)Nc4ccc(Cl)c(Cl)c4)ccc3C2=O)C(=O)N1 (stereo not given), the melting point is reported as 238 to 240 °C.
Work on CC(C)C(=O)CC1NC(=O)c2ccsc2-n2cccc21 (stereo not given) yielded a melting point of 160 °C.
Molecule COc1ccc2c(c1OC)C(=O)O[C@@H]2[C@H]1c2c(c(Br)c3c(c2OC)OCO3)CCN1C has a melting point of 169 to 170 °C.
Work on CCCc1cc(C(=O)O)nn1C yielded a melting point of 120 to 122 °C.
With CON=Cc1ccc2c(c1)c1c(n2Cc2cccc(F)c2)CCC(NC(=O)C(C)C)C1 (stereo not given) the melting point was 180 to 182 °C.
In the case of Cc1sc(-c2cccc(F)c2)nc1O, the melting point is reported as 162 to 163 °C.
For CC(=O)Nc1ccc(S(=O)(=O)CC(=O)C23CC4CC(CC(C4)C2)C3)cc1, the melting point was 151 to 152 °C.
CCCCCCCN(CCOCCSc1nc(-c2ccc(OC)cc2)c(-c2ccc(OC)cc2)[nH]1)C(=O)NC(C)C gave a melting point of 85 to 87 °C.
With COc1cc(CN2CCN(C(=O)c3ccc4c(c3)C(=O)C3(CC3)O4)CC2)cc(OC)c1OC the melting point was 196 to 198 °C.
